Consider five compounds from patent US9376470B2, “Polypeptide having angiogenesis-inducing activity and antibacterial activity, and use thereof for medical purposes” (FunPep Inc., priority 2008, dated 2016).

Where two headings read alike, the source gives them in different places. Peptide text beside a SMILES is read from it.

For data set [1], the system named is Pseudomonas aeruginosa ATCC27853. The data set can be described thus: Antibacterial activity, ATP assay (BacTiter-Glo). Type of data set: cell-based. The conditions noted are these: for ATP (%) mean, Pseudomonas aeruginosa: Table 4-1, ATP assay concentration: peptides 10, TOB 1.0, CPFX 1.0, OX 0.5, MEPM 1.0 μg/ml. On the procedure: (§1) The antibacterial activity of the polypeptides was measured using an ATP assay method. That is, using BacTiter-Glo Microbial Cell Viability Assay kit available from PROMEGA, the antibacterial activity of the peptides was evaluated from the viability of bacteria. […] With respect to the strains, Staphylococcus aureus ATCC29213 (S. aureus ATCC29213) as Gram-positive bacteria, or, alternatively, Pseudomonas aeruginosa (P. aeruginosa ATCC27853) as Gram-negative bacteria, was used. The bacteria were cultured in media for 3 to 4 hours, and thereafter absorbances at A600 were measured. Bacterial suspensions were diluted with Mueller-Hinton broth (MHB) according to McFarland #0.5. Each strain was added so as to attain about 0.5−1×10^5 CFU/mL (final concentration) in terms of Escherichia coli. […] A solution to which the peptides were not added was considered as a negative control, and a solution to which tobramycin (TOB) was added was considered as a positive control. […] Relative values were calculated by comparison with the negative control, and these values were regarded as the viability. ATP (%) of the antibacterial activity was measured in the same manner as mentioned above, and the “minimum inhibitory concentration (MIC)” was measured as follows. MIC is the lowest concentration of an agent that may inhibit the growth of a bacterium. MIC is used as a parameter for the efficacy of an antibacterial agent, for the strength of bacterial sensitivity, or the like. The bacteria can grow (proliferate) when the concentration is not higher than MIC, and cannot grow when the concentration is higher than MIC. Its measurement is carried out according to a method defined as a standard method by Japanese Society of Chemotherapy or CLINICAL AND LABORATORY […] (CLSI), but, in this Example, its measurement was carried out by a broth microdilution method in accordance with “M100-S17/M7-A7” (Performance Standards for Antimicrobial Susceptibility Testing; Seventeenth Informational Supplement, Vol. 27 No. 1) published by CLSI on January, 2007. That is, sensitivity test of agents was carried out using a microtiter plate or test tubes. With respect to each strain, Escherichia coli: ATCC 25922 (Escherichia coli ATCC 25922), Pseudomonas aeruginosa: ATCC 27853 (Pseudomonas aeruginosa ATCC 27853), Staphylococcus aureus: ATCC29213 (Staphylococcus aureus ATCC29213), Klebsiella pneumoniae: JCM 1662 (Klebsiella pneumoniae JCM 1662), enterobacteria (1): JCM 1232 (Enterobacter cloacae JCM 1232), enterobacteria (2): JCM 1235 (Enterobacter aerogenes JCM 1235), and Staphylococcus epidermidis: JCM 2414 (Staphylococcus epidermidis JCM 2414), were used. […] As the concentrations of the agents in ATP assay, the concentrations as described in the Tables were used.

Data set [2] relates to Staphylococcus aureus ATCC29213. The data set can be described thus: Antibacterial activity, ATP assay (BacTiter-Glo). As to conditions: for ATP (%) mean, Staphylococcus aureus: Table 4-1, ATP assay concentration: peptides 10, TOB 1.0, OX 0.5 μg/ml; for antibacterial activity against Staphylococcus aureus compared with AG30-5C: 10 μg/mL, ATP assay. Type of data set: cell-based. On the procedure:
as §1

In data set [3] the test system is human vascular endothelial cells and fibroblast cells (co-culture). The data set can be described thus: Lumen formation with angiogenesis kit KZ-1000 (section 7). The format is cell-based. As to conditions: for ability to form lumina: 0.5, 2.5 and 10 μg/mL; for The Area of Lumina (relative value, negative control as 100) / The Length of Lumina (relative value, negative control as 100): day 11. On the procedure:
Using an angiogenesis kit available from KURABO […] LTD. (Product No.: KZ-1000), lumen formation by the polypeptides was evaluated. Vascular endothelial growth factor A (VEGF-A) as a positive control, and polypeptide-free, unstimulated group as a negative control, were used.
Using a special medium for angiogenesis which was attached to the kit, each polypeptide was prepared such that the concentration thereof was respectively 0.5, 2.5 and 10 μg/mL. To a 24-well plate in which cells were plated (the cells were those obtained by co-culturing human vascular endothelial cells and fibroblast cells at an optimum concentration) which was attached to the kit, the special medium for angiogenesis containing each polypeptide was added, and the cells were cultured at 37° C. under 5% CO2. The medium was replaced with a medium containing the same additive on day 4, day 7 and day 9 of culture. On day 11 from the beginning of the culture, staining was performed using a kit for staining lumina (for CD31 antibody staining) according to the following procedure.
The media were removed, and washing was performed with Dulbecco's phosphate buffered saline (PBS(−)). Thereafter, ice-cooled 70% ethanol was added to the plate, and the cells were fixed. Each well was washed with a blocking solution (Dulbecco's phosphate buffered saline (PBS(−)) containing 1% BSA). To each well, 0.5 mL of the primary antibody for CD31 staining (mouse anti-human CD31 antibody) 4000-fold diluted with the blocking solution was added, and then the plate was incubated for 60 minutes at 37° C. After the completion of the incubation, each well was washed totally 3 times with 1 mL of the blocking solution. Then, 0.5 mL of the secondary antibody solution (goat anti-mouse IgG/alkaline phosphatase conjugate) 500-fold diluted with the blocking solution was added to each well. The plate was incubated for 60 minutes at 37° C., and thereafter each well was washed 3 times with 1 mL of distilled water. During that period, 2 tablets of BCIP/NBT were dissolved into distilled water, and the obtained solution was filtered through a filter having a pore size of […] to prepare a substrate solution. To each well, 0.5 mL of the prepared BCIP/NBT substrate solution was added, and the plate was incubated at 37° C. until the lumina turned to deep purple (typically for 5-10 minutes). After the completion of the incubation, each well was washed 3 times with 1 mL of distilled water. After washing, the washing solution was removed by aspiration, and the plate was left to stand and dry naturally. After drying, photographs of each well were taken under a microscope.
Each of the obtained images was quantified using an angiogenesis quantification software. The area and length of formed lumina observed in each visual field were measured on the basis of the scale of an angiogenesis quantification software available from KURABO […] LTD. (angiogenesis quantification software Ver 1.0), and evaluated on the basis of the ratio of the area or length of polypeptide-containing groups relative to the area or length of the negative control group.

A further data set is described as follows: in vitro. Type of data set: in vitro ADME, rat. The conditions noted are these: for half-life: rat serum, 37° C. On the procedure:
(§2) Then, the stability of five polypeptides SR-1 to 5 in serum was evaluated.
(§3) In human serum (purchased from KAC Co., Ltd.), or in rat serum obtained by collecting blood from a rat, then leaving the collected blood to stand at room temperature followed by centrifugation, each of the peptides was dissolved so as to attain a final concentration of 500 μg/mL, and the obtained solutions were left to stand at 37° C. After leaving to stand for 10 min or 30 min or 60 min, these solutions were subjected to HPLC chromatogram analysis to detect peaks of the decomposition products, and calculate the ratio of the concentration of the peptides which remained in the solutions relative to the starting concentration. In addition, the half-lives of the peptides in serum were also calculated.
(§4) HPLC chromatogram analysis conditions are as follows.

The format of data set [4] is in vitro ADME. The conditions noted are these: human serum, 37° C. On the procedure: as §2, §3, §4
Where [5] appears, read: Table 3, peptides 10 μg/mL, 3 hours, ATP relative to negative control.

Take `C[C@@H](O)[C@H]1C(=O)N2C(C(=O)O)=C(S[C@@H]3CN[C@H](C(=O)N(C)C)C3)[C@H](C)[C@H]12` [MEPM, meropenem, reference compound]: in data set [1], the “ATP (%) mean, Pseudomonas aeruginosa” value came out at 20.2%.
For the compound `Cc1onc(-c2ccccc2)c1C(=O)N[C@@H]1C(=O)N2[C@@H]1SC(C)(C)[C@@H]2C(=O)O` [OX, oxacillin, reference compound], in data set [1], the “ATP (%) mean, Pseudomonas aeruginosa” value is recorded as 83.1%. Besides, in data set [2], the “ATP (%) mean, Staphylococcus aureus” value was 72.8%.
As usually defined, the half-life is the time needed for the level to fall by half in the phase considered. A high value points to slow loss. By share remaining is commonly meant the share of the starting amount still present when the sample was taken. Consider `CC[C@H](C)[C@H](NC(=O)[C@H](CC(C)C)NC(=O)[C@H](CCCCN)NC(=O)[C@H](CC(C)C)NC(=O)[C@@H](N)CCSC)C(=O)N[C@@H](Cc1ccccc1)C(=O)N[C@@H](CC(C)C)C(=O)N[C@@H](Cc1c[nH]cn1)C(=O)N[C@@H](CCCNC(=N)N)C(=O)N[C@@H](CC(C)C)C(=O)N[C@@H](CCCCN)C(=O)N[C@@H](CCCNC(=N)N)C(=O)N[C@@H](CCSC)C(=O)N[C@@H](CCCNC(=N)N)C(=O)N[C@@H](CCCCN)C(=O)N[C@@H](CCCNC(=N)N)C(=O)N[C@@H](CC(C)C)C(=O)N[C@@H](CCCCN)C(=O)N[C@@H](CCCNC(=N)N)C(=O)N[C@@H](CCCCN)C(=O)O` [SR-1] (H-MLKLIFLHRLKRMRKRLKRK-OH; N-terminus assumed), for which the “ATP (%) mean, Pseudomonas aeruginosa” value in data set [1] was 26.0%. Also, in data set [2], the “antibacterial activity against Staphylococcus aureus compared with AG30-5C” value is “higher antibacterial activity against Staphylococcus aureus than AG30-5C” and the “ATP (%) mean, Staphylococcus aureus” value is given as 5.2%. The “ability to form lumina” value in data set [3] is “high ability to form lumina”. In data set [3] (polypeptide 0.5 μg/mL), the “The Area of Lumina (relative value, negative control as 100)” value was 94.6 and the “The Length of Lumina (relative value, negative control as 100)” value is on record as 97.4. For the same compound, in data set [3] (polypeptide 10 μg/mL), the “The Area of Lumina (relative value, negative control as 100)” value worked out at 156.6 and the “The Length of Lumina (relative value, negative control as 100)” value is reported as 149.5. In the data set “in vitro”, the “decomposition in rat serum” value was “completely decomposed” and the half-life was determined as 3 min. For the same compound, in “in vitro” (rat, serum), the amount remaining at 0.5 h, 500 μg/mL turned out to be 0% and the fraction remaining at 1 h, 500 μg/mL is 0%. Further, the half-life in data set [4] turned out to be 4 min.
Turning to `CC(C)C[C@H](NC(=O)[C@H](CCCCN)NC(=O)[C@H](CCCNC(=N)N)NC(=O)[C@H](CCCCN)NC(=O)[C@H](CC(C)C)NC(=O)[C@H](CCCNC(=N)N)NC(=O)[C@H](CCCCN)NC(=O)[C@H](CCCNC(=N)N)NC(=O)[C@H](CC(C)C)NC(=O)[C@H](CCCNC(=N)N)NC(=O)[C@H](CCCNC(=N)N)NC(=O)[C@H](CCCCN)NC(=O)[C@H](CC(C)C)NC(=O)[C@H](CCCNC(=N)N)NC(=O)[C@H](Cc1c[nH]cn1)NC(=O)[C@H](CC(C)C)NC(=O)[C@H](Cc1ccccc1)NC(=O)[C@H](CCCNC(=N)N)NC(=O)[C@H](CC(C)C)NC(=O)[C@@H](N)CCC(=O)O)C(=O)N[C@@H](CCCNC(=N)N)C(N)=O` [SR-2] (H-ELRFLHRLKRRLRKRLKRKLR-NH2; N-terminus assumed), the “antibacterial activity against Pseudomonas aeruginosa compared with AG30-5C” value in data set [1] (10 μg/mL, ATP assay) was “higher antibacterial activity against Pseudomonas aeruginosa than AG30-5C”. Besides, the “ATP (%) mean, Pseudomonas aeruginosa” value in data set [1] amounted to 1.0%. In addition, in data set [2], the “antibacterial activity against Staphylococcus aureus compared with AG30-5C” value is recorded as “higher antibacterial activity against Staphylococcus aureus than AG30-5C” and the “ATP (%) mean, Staphylococcus aureus” value came out at 4.4%. Besides, in data set [3], the “ability to form lumina” value is given as “high ability to form lumina”. Also, in data set [3] (polypeptide 0.5 μg/mL), the “The Area of Lumina (relative value, negative control as 100)” value is on record as 110.7 and the “The Length of Lumina (relative value, negative control as 100)” value came out at 108.9. Further, in data set [3] (polypeptide 10 μg/mL), the “The Area of Lumina (relative value, negative control as 100)” value was 138.0 and the “The Length of Lumina (relative value, negative control as 100)” value was 129.9. Further, in “in vitro”, the “decomposition in rat serum” value was 35-55% and the half-life amounted to 75 min. In “in vitro” (rat, serum), the amount remaining at 10 min, 500 μg/mL was found to be 69% and the amount remaining at 1 h, 500 μg/mL worked out at 51.7%. The same compound yielded a half-life in data set [4] of 12 min.
As to `NC[C@H]1O[C@H](O[C@H]2[C@H](O)[C@@H](O[C@H]3O[C@H](CO)[C@@H](O)[C@H](N)[C@H]3O)[C@H](N)C[C@@H]2N)[C@H](N)C[C@@H]1O` [TOB, tobramycin, reference compound], the “Viability (%) Pseudomonas aeruginosa” value in data set [1] (setting [5]) worked out at 1.8%. Besides, the “ATP (%) mean, Pseudomonas aeruginosa” value in data set [1] is on record as 1.7%. The “Viability (%) Staphylococcus aureus” value in data set [2] (setting [5]) worked out at 3.5%. In addition, the “ATP (%) mean, Staphylococcus aureus” value in data set [2] was determined as 3.1%.
